Laboratory results from patent publication US8772480B2, “Inhibitors of PI3 kinase and/or mTOR” (priority 2009, dated 2014).

How the values were obtained:
Format in all cases: biochemical
[1] = biological target: ProfilerPro Kinase Selectivity Assay Kit kinases (Homo sapiens, UniProt O75116); settings: ROCK2; 1 μM compound concentration
[2] = biological target: ProfilerPro Kinase Selectivity Assay Kit kinases (Homo sapiens, UniProt O75582); settings: MSK1; 1 μM compound concentration
[3] = biological target: ProfilerPro Kinase Selectivity Assay Kit kinases (Homo sapiens, UniProt P00519); settings: ABL; 1 μM compound concentration
[4] = biological target: ProfilerPro Kinase Selectivity Assay Kit kinases (Homo sapiens, UniProt P04049); settings: cRAF; 1 μM compound concentration
[5] = biological target: ProfilerPro Kinase Selectivity Assay Kit kinases (Homo sapiens, UniProt P06213); settings: INSR; 1 μM compound concentration
[6] = biological target: ProfilerPro Kinase Selectivity Assay Kit kinases (Homo sapiens, UniProt P06239); settings: LCK; 1 μM compound concentration
[7] = biological target: ProfilerPro Kinase Selectivity Assay Kit kinases (Homo sapiens, UniProt P06241); settings: FYN; 1 μM compound concentration
[8] = biological target: ProfilerPro Kinase Selectivity Assay Kit kinases (Homo sapiens, UniProt P07948); settings: LYN; 1 μM compound concentration
[9] = biological target: ProfilerPro Kinase Selectivity Assay Kit kinases (Homo sapiens, UniProt P08581); settings: cMET; 1 μM compound concentration
[10] = biological target: ProfilerPro Kinase Selectivity Assay Kit kinases (Homo sapiens, UniProt P11362); settings: FGFR1; 1 μM compound concentration
[11] = biological target: ProfilerPro Kinase Selectivity Assay Kit kinases (Homo sapiens, UniProt P12931); settings: SRC; 1 μM compound concentration
[12] = biological target: ProfilerPro Kinase Selectivity Assay Kit kinases (Homo sapiens, UniProt P23443); settings: p70S6K; 1 μM compound concentration
[13] = biological target: ProfilerPro Kinase Selectivity Assay Kit kinases (Homo sapiens, UniProt P24941); settings: CDK2; 1 μM compound concentration
[14] = biological target: ProfilerPro Kinase Selectivity Assay Kit kinases (Homo sapiens, UniProt P28482); settings: ERK2; 1 μM compound concentration
[15] = biological target: ProfilerPro Kinase Selectivity Assay Kit kinases (Homo sapiens, UniProt P31749); settings: AKT1; 1 μM compound concentration
[16] = biological target: ProfilerPro Kinase Selectivity Assay Kit kinases (Homo sapiens, UniProt P31751); settings: AKT2; 1 μM compound concentration
[17] = biological target: ProfilerPro Kinase Selectivity Assay Kit kinases (Homo sapiens, UniProt P35968); settings: KDR; 1 μM compound concentration
[18] = biological target: ProfilerPro Kinase Selectivity Assay Kit kinases (Homo sapiens, UniProt P36888); settings: FLT3; 1 μM compound concentration
[19] = biological target: ProfilerPro Kinase Selectivity Assay Kit kinases (Homo sapiens, UniProt P48730); settings: CK1 delta; 1 μM compound concentration
[20] = biological target: ProfilerPro Kinase Selectivity Assay Kit kinases (Homo sapiens, UniProt P49137); settings: MAPKAPK2; 1 μM compound concentration
[21] = biological target: ProfilerPro Kinase Selectivity Assay Kit kinases (Homo sapiens, UniProt P49841); settings: GSK3 beta; 1 μM compound concentration
[22] = biological target: ProfilerPro Kinase Selectivity Assay Kit kinases (Homo sapiens, UniProt Q13188); settings: MST2; 1 μM compound concentration
[23] = biological target: ProfilerPro Kinase Selectivity Assay Kit kinases (Homo sapiens, UniProt Q13627); settings: DYRK1a; 1 μM compound concentration
[24] = biological target: ProfilerPro Kinase Selectivity Assay Kit kinases (Homo sapiens, UniProt Q13976); settings: PKGa2; 1 μM compound concentration
[25] = biological target: ProfilerPro Kinase Selectivity Assay Kit kinases (Homo sapiens, UniProt Q15418); settings: RSK1; 1 μM compound concentration
[26] = biological target: ProfilerPro Kinase Selectivity Assay Kit kinases (Homo sapiens, UniProt Q16539); settings: p38 alpha; 1 μM compound concentration
[27] = biological target: ProfilerPro Kinase Selectivity Assay Kit kinases (Homo sapiens, UniProt Q16566); settings: CAMK4; 1 μM compound concentration
[28] = biological target: ProfilerPro Kinase Selectivity Assay Kit kinases (Homo sapiens, UniProt Q8IW41); settings: PRAK; 1 μM compound concentration
[29] = biological target: ProfilerPro Kinase Selectivity Assay Kit kinases (Homo sapiens, UniProt Q9P0L2); settings: MARK1; 1 μM compound concentration
[30] = biological target: ProfilerPro Kinase Selectivity Assay Kit kinases (Homo sapiens, UniProt Q9P1W9); settings: PIM2; 1 μM compound concentration
[31] = test system: ProfilerPro Kinase Selectivity Assay Kit kinases; settings: 1 μM compound concentration

Sequence of ProfilerPro Kinase Selectivity Assay Kit kinases (Homo sapiens, UniProt P06241) (P06241 2-537 limits assumed): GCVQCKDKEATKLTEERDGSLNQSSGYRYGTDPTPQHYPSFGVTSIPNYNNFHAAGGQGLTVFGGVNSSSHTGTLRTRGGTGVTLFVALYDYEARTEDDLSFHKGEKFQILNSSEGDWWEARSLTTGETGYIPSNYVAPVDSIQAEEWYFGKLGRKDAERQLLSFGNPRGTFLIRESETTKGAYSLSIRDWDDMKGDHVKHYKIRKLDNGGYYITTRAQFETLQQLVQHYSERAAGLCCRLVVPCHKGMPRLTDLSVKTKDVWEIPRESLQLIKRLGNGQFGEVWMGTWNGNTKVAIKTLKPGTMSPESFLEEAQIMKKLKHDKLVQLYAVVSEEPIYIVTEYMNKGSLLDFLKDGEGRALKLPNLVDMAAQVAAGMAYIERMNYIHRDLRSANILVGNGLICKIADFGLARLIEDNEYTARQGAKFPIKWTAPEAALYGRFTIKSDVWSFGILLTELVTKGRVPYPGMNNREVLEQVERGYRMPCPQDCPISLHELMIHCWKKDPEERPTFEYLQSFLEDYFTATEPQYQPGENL
Sequence of ProfilerPro Kinase Selectivity Assay Kit kinases (Homo sapiens, UniProt P35968) (P35968 20-1356 limits assumed): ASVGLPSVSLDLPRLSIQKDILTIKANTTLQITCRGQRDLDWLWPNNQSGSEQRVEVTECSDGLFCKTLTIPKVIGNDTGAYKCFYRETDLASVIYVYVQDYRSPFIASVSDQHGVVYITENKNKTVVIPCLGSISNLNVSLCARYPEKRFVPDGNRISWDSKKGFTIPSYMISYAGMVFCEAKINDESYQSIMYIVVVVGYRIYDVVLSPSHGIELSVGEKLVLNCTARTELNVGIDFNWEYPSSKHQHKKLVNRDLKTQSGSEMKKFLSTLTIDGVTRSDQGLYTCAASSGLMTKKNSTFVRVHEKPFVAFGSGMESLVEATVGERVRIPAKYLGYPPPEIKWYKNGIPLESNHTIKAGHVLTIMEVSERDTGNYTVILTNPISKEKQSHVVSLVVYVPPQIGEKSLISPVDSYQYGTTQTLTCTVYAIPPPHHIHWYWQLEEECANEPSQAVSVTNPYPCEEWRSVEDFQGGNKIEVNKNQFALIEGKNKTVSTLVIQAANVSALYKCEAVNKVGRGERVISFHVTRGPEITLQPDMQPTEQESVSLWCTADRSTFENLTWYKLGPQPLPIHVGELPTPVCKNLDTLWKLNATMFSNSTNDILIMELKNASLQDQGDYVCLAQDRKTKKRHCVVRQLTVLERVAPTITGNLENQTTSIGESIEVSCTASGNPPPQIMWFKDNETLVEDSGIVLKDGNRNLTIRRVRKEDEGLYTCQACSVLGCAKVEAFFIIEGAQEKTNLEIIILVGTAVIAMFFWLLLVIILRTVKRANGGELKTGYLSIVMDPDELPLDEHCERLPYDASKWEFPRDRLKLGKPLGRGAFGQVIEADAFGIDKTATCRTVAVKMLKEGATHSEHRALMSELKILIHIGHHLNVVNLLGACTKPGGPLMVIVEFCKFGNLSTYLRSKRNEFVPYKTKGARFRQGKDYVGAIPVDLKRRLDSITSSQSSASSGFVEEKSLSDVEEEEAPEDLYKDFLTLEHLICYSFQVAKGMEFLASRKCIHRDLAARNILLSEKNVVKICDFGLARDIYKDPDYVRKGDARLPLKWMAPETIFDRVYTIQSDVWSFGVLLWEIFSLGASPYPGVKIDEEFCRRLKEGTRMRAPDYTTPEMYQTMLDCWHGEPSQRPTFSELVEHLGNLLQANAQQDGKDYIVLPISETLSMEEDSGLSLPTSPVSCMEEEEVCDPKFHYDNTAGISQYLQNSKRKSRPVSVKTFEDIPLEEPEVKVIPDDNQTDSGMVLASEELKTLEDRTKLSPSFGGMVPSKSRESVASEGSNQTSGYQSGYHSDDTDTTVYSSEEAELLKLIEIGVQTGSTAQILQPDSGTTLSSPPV
Sequence of ProfilerPro Kinase Selectivity Assay Kit kinases (Homo sapiens, UniProt P06239) (P06239 2-509 limits assumed): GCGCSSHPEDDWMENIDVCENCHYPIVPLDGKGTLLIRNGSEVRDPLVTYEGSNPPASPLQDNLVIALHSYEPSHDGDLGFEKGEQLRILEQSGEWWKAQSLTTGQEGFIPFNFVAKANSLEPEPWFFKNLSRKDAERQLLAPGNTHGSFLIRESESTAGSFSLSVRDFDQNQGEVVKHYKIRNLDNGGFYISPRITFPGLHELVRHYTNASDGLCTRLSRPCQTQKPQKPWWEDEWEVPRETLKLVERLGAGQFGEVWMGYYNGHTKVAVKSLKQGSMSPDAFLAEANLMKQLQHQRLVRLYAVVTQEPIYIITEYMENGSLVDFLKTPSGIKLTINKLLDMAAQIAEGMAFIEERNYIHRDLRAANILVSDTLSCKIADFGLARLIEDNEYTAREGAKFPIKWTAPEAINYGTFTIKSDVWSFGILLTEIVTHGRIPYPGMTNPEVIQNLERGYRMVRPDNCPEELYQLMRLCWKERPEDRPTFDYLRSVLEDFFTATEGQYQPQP
Sequence of ProfilerPro Kinase Selectivity Assay Kit kinases (Homo sapiens, UniProt P11362) (P11362 22-822 limits assumed): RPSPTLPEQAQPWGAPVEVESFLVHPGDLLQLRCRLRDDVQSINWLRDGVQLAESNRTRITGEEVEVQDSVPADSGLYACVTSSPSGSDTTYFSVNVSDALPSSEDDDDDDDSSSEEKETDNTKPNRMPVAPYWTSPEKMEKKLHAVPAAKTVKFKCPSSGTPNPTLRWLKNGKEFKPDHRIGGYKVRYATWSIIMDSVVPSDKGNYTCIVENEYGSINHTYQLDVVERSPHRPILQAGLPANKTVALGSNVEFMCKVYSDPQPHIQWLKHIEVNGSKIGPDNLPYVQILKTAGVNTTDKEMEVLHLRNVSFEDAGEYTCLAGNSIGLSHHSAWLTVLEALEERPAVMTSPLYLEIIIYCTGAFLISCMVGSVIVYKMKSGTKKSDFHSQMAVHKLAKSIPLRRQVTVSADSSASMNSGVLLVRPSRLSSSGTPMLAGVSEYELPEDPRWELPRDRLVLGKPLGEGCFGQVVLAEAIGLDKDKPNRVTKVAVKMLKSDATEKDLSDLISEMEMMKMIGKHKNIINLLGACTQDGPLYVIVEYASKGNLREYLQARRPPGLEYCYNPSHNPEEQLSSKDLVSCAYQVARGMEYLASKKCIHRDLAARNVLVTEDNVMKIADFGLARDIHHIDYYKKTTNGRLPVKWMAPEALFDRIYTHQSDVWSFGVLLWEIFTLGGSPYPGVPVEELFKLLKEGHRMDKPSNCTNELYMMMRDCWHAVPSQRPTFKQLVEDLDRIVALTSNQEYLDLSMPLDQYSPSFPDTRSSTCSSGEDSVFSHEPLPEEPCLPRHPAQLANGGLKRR
Sequence of ProfilerPro Kinase Selectivity Assay Kit kinases (Homo sapiens, UniProt P12931) (P12931 2-536 limits assumed): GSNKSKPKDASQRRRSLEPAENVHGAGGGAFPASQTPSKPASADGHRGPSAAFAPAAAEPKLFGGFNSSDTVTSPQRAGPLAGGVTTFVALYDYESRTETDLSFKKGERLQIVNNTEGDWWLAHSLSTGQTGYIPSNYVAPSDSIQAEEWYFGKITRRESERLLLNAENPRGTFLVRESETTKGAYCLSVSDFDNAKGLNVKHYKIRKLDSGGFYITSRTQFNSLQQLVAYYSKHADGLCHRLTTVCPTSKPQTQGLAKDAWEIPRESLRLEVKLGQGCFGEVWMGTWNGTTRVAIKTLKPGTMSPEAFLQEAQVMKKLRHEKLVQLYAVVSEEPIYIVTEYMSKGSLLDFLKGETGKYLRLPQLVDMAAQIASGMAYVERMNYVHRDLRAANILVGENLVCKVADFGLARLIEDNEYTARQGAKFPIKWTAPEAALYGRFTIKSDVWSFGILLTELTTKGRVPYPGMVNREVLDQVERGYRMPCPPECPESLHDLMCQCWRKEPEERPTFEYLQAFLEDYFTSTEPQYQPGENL
Sequence of ProfilerPro Kinase Selectivity Assay Kit kinases (Homo sapiens, UniProt P28482) (P28482 2-360 limits assumed): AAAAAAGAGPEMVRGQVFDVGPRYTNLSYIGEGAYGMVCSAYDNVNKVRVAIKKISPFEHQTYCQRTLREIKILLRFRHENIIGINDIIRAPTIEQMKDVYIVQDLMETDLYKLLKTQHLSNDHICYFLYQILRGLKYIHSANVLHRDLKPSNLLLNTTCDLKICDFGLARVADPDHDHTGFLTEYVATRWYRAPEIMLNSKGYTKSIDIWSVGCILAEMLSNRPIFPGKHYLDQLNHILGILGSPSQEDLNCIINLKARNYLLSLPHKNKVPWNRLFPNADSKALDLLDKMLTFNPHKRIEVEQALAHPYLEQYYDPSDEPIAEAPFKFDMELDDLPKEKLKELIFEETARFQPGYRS
Sequence of ProfilerPro Kinase Selectivity Assay Kit kinases (Homo sapiens, UniProt P07948) (P07948 2-512 limits assumed): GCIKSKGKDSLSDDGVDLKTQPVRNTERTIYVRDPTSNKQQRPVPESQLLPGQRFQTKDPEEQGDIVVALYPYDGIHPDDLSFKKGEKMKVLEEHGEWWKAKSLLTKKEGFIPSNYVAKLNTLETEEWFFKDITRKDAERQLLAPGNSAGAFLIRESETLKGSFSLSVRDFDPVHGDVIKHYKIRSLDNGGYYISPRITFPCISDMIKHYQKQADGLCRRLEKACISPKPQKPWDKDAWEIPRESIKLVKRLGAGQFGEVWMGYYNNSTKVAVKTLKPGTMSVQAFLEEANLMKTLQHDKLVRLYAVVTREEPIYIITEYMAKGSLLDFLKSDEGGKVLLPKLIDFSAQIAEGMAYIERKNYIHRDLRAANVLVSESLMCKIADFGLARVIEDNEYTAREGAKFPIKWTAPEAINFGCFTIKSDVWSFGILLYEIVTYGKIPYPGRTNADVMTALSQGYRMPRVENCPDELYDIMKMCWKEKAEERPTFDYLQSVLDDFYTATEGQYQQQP
Sequence of ProfilerPro Kinase Selectivity Assay Kit kinases (Homo sapiens, UniProt Q16539) (Q16539 2-360 limits assumed): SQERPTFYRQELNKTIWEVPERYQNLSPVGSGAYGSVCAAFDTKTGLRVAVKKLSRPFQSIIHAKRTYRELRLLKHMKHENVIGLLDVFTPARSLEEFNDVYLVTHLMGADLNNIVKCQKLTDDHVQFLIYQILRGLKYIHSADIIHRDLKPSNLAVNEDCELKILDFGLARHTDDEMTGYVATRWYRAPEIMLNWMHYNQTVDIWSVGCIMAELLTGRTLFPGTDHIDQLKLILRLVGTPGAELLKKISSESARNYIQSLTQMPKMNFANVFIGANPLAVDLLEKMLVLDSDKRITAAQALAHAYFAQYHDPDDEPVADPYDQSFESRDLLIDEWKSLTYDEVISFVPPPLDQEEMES

Row | POC (Percent of control) ROCK2 [1] [POC] | POC (Percent of control) MSK1 [2] [POC] | POC (Percent of control) ABL [3] [POC] | POC (Percent of control) cRAF [4] [POC] | POC (Percent of control) INSR [5] [POC] | POC (Percent of control) LCK [6] [POC] | POC (Percent of control) FYN [7] [POC] | POC (Percent of control) LYN [8] [POC] | POC (Percent of control) cMET [9] [POC] | POC (Percent of control) FGFR1 [10] [POC] | POC (Percent of control) SRC [11] [POC] | POC (Percent of control) p70S6K [12] [POC] | POC (Percent of control) CDK2 [13] [POC] | POC (Percent of control) ERK2 [14] [POC] | POC (Percent of control) AKT1 [15] [POC] | POC (Percent of control) AKT2 [16] [POC] | POC (Percent of control) KDR [17] [POC] | POC (Percent of control) FLT3 [18] [POC] | POC (Percent of control) CK1 delta [19] [POC] | POC (Percent of control) MAPKAPK2 [20] [POC] | Structure (SMILES) | also measured
1 | 98 | 97 | 77 | 1 | 90 | 72 | 86 | 81 | 104 | 62 | 93 | 98 | 91 | 96 | 103 | 93 | 89 | 106 | 35 | 93 | c1cnc(Nc2cccc3[nH]ncc23)c(-c2ncnc3[nH]cnc23)c1 [Example 18, N-(3-(9H-Purin-6-yl)Pyridin-2-yl)-1H-Indazol-4-Amine] | POC (Percent of control) GSK3 beta [21]: 92 POC; POC (Percent of control) MST2 [22]: 96 POC; POC (Percent of control) DYRK1a [23]: 59 POC; POC (Percent of control) PKGa2 [24]: 90 POC; POC (Percent of control) RSK1 [25]: 96 POC; POC (Percent of control) p38 alpha [26]: 86 POC; POC (Percent of control) CAMK4 [27]: 71 POC; POC (Percent of control) PRAK [28]: 95 POC; POC (Percent of control) MARK1 [29]: 112 POC; POC (Percent of control) PIM2 [30]: 101 POC; POC (Percent of control) AMPK [31]: 83 POC; POC (Percent of control) CAMK2 [31]: 90 POC; POC (Percent of control) PKC beta2 [31]: 91 POC; POC (Percent of control) TAK1 [31]: 97 POC
2 | 104 | 106 | 19 | 56 | 88 | 70 | 33 | 50 | 89 | 51 | 23 | 91 | 90 | 94 | 94 | 110 | 29 | 25 | 72 | 90 | c1cnc(Nc2cccc3[nH]ccc23)c(-c2ncnc3[nH]cnc23)c1 [Example 19, N-(3-(9H-Purin-6-yl)Pyridin-2-yl)-1H-Indol-4-Amine] | POC (Percent of control) GSK3 beta [21]: 79 POC; POC (Percent of control) MST2 [22]: 82 POC; POC (Percent of control) DYRK1a [23]: 66 POC; POC (Percent of control) PKGa2 [24]: 93 POC; POC (Percent of control) RSK1 [25]: 87 POC; POC (Percent of control) p38 alpha [26]: 86 POC; POC (Percent of control) CAMK4 [27]: 77 POC; POC (Percent of control) PRAK [28]: 84 POC; POC (Percent of control) MARK1 [29]: 95 POC; POC (Percent of control) PIM2 [30]: 105 POC; POC (Percent of control) AMPK [31]: 57 POC; POC (Percent of control) CAMK2 [31]: 84 POC; POC (Percent of control) PKC beta2 [31]: 94 POC; POC (Percent of control) TAK1 [31]: 90 POC

Row | Structure (SMILES) | POC (Percent of control) ROCK2 [1] [POC] | POC (Percent of control) MSK1 [2] [POC] | POC (Percent of control) ABL [3] [POC] | POC (Percent of control) cRAF [4] [POC] | POC (Percent of control) INSR [5] [POC] | POC (Percent of control) LCK [6] [POC] | POC (Percent of control) FYN [7] [POC] | POC (Percent of control) LYN [8] [POC] | POC (Percent of control) cMET [9] [POC] | POC (Percent of control) FGFR1 [10] [POC] | POC (Percent of control) SRC [11] [POC] | POC (Percent of control) p70S6K [12] [POC] | POC (Percent of control) CDK2 [13] [POC] | POC (Percent of control) ERK2 [14] [POC] | POC (Percent of control) AKT1 [15] [POC] | POC (Percent of control) AKT2 [16] [POC] | POC (Percent of control) KDR [17] [POC] | POC (Percent of control) FLT3 [18] [POC] | POC (Percent of control) CK1 delta [19] [POC] | POC (Percent of control) MAPKAPK2 [20] [POC] | also measured
3 | COc1ccc(Nc2ncccc2-c2ncnc3[nH]cnc23)cn1 [Example 20, N-(6-Methoxypyridin-3-yl)-3-(9H-Purin-6-yl)Pyridin-2-Amine] | 101 | 93 | 99 | 59 | 97 | 101 | 101 | 92 | 106 | 94 | 95 | 104 | 96 | 101 | 105 | 92 | 93 | 120 | 93 | 100 | POC (Percent of control) GSK3 beta [21]: 95 POC; POC (Percent of control) MST2 [22]: 95 POC; POC (Percent of control) DYRK1a [23]: 102 POC; POC (Percent of control) PKGa2 [24]: 98 POC; POC (Percent of control) RSK1 [25]: 97 POC; POC (Percent of control) p38 alpha [26]: 93 POC; POC (Percent of control) CAMK4 [27]: 100 POC; POC (Percent of control) PRAK [28]: 99 POC; POC (Percent of control) MARK1 [29]: 108 POC; POC (Percent of control) PIM2 [30]: 105 POC; POC (Percent of control) AMPK [31]: 93 POC; POC (Percent of control) CAMK2 [31]: 111 POC; POC (Percent of control) PKC beta2 [31]: 104 POC; POC (Percent of control) TAK1 [31]: 99 POC
